Measured values from EP4559912A1, “SULFUR-CONTAINING HETEROAROMATIC RING COMPOUND, PHARMACEUTICAL COMPOSITION THEREOF, AND USE THEREOF” (Evopoint Biosciences Co., Ltd., priority 2022, dated 2024).

Molecular target: His-GST tagged PARG (Homo sapiens, UniProt Q86W56)
Test: In vitro PARG assay (TR-FRET)
Format: biochemical
Settings: 4 pM His-GST tagged PARG, 30 nM Bio PARylated PARP1 substrate, 20 min at room temperature, TR-FRET Em 665/Em 615
Description: The in vitro PARG assay experiment was conducted in a standard 384-well plate with a total volume of 15 µL. To a 384-well plate containing the test compound was added 5 µL of an enzyme reaction mixture (50 mM Tris-HCL pH 7.5, 50 mM KCL, 0.01% Triton X-100, 0.01% BSA, and 4 pM His-GST tagged PARG). The plate was incubated at room temperature for 10 min, and then 5 µL of a substrate mixture (50 mM Tris-HCL pH 7.5, 50 mM KCL, 0.01% Triton X-100, 0.01% BSA, and 30 nM Bio PARylated PARP1) was added to initiate the reaction. The plate was further incubated at room temperature for 20 min, and then 5 µL of a detection reagent was added to terminate the reaction. The detection reagent was prepared from a buffer (50 mM Tris-HCl pH 7.5, 50 mM KCL, 0.01% Triton X-100, and 0.01% BSA), 3 µM compound PDD00017273, 1.5× Mab anti-6HIS XL665 (Cisbio: 61HISXLA), and 1.5× streptavidin terbium cryptate (Cisbio: 610SATLA). The final concentrations of the compound PDD00017273, the 1.5× Mab anti-6HIS XL665 (Cisbio: 61HISXLA), and the 1.5× streptavidin terbium cryptate were 1 µM, 0.5×, and 0.5×, respectively. After incubation in the dark at room temperature for 120 min, TR-FRET signals were measured at Ex 340, Em 665, and Em 615. The ratio for each well was calculated as Em 665/Em 615 (the ratio here corresponds to the ratio of fluorescence signals at the wavelengths).

Chain of His-GST tagged PARG (Q86W56 whole entry): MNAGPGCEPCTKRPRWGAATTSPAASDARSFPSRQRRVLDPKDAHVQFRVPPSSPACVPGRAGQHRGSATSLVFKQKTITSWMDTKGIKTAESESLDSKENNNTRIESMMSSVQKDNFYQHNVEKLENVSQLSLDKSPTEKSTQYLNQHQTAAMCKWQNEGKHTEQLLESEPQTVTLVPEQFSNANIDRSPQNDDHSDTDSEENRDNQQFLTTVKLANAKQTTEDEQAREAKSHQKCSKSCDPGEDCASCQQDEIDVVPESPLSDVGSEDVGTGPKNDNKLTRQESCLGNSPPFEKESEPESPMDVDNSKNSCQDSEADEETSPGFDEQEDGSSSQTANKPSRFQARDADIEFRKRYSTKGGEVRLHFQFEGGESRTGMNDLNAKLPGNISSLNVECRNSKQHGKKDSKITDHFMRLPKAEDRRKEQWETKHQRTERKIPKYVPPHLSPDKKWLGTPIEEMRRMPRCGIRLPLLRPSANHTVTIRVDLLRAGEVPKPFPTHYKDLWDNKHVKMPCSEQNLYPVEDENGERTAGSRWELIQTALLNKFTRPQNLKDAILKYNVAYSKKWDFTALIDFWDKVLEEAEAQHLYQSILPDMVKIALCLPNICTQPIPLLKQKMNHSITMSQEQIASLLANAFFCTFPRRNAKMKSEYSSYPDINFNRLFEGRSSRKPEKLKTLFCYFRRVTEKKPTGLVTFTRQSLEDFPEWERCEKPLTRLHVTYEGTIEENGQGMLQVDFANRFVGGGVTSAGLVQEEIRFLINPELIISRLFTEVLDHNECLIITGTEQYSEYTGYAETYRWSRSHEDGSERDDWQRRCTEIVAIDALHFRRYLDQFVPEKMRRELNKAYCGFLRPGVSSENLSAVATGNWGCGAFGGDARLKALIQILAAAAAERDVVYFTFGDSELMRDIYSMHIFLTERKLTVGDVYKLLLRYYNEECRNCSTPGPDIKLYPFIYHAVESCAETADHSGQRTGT

| SMILES | IC50 |
| --- | --- |
| C[C@@H]1CN(c2cc(S(=O)(=O)NC3(C#N)CC3)cc3c2cnn3-c2nnc(C(F)F)s2)CCN1C(=O)C(=O)C1CC1 [EVO29386] | 100 to 500 nM |
| C[C@@H]1CN(c2cc(S(=O)(=O)NC3(C#N)CC3)cc3c2nnn3-c2nnc(C(F)F)s2)CCN1C(=O)[C@H](O)C(C)(C)C [EVO29725] | 100 to 500 nM |
| CO[C@@H](C(=O)N1CCN(c2cc(S(=O)(=O)NC3(C#N)CC3)cc3c2cnn3-c2nnc(C)s2)C[C@H]1C)C(C)C [EVO29420] | < 100 nM |
| C[C@@H](O)C(=O)N1CCN(c2cc(S(=O)(=O)NC3(C#N)CC3)cc3c2cnn3-c2nnc(C(F)F)s2)CC1 [EVO29284] | < 100 nM |
| C[C@@H]1CN(c2cc(S(=O)(=O)NC3(C)CC3)cc3c2c(F)nn3-c2nnc(C(F)F)s2)CCN1C(=O)[C@H](O)C(C)(C)C [EVO29798] | < 100 nM |
| COC(C)(C)C(=O)N1CCN(c2cc(S(=O)(=O)NC3(C#N)CC3)cc3c2cnn3-c2nnc(C(F)F)s2)C[C@H]1C [EVO29426] | < 100 nM |
| C[C@@H]1CN(c2cc(S(=O)(=O)NC3(C#N)CC3)cc3c2cnn3-c2nnc(C(F)F)s2)CCN1C(=O)C(O)C(C)(C)CO (single isomer, unassigned) [EVO29790P2] | < 100 nM |
| C[C@H](CO)C(=O)N1CCN(c2cc(S(=O)(=O)NC3(C#N)CC3)cc3c2cnn3-c2nnc(C(F)F)s2)C[C@H]1C [EVO29351] | < 100 nM |
| Cc1nnc(-n2ncc3c(N4CCN(C(=O)C(=O)C(C)(C)C)[C@H](C)C4)cc(S(=O)(=O)NC4(C)CC4)cc32)s1 [EVO29408] | < 100 nM |

The remaining lines, values ahead:

| IC50 | SMILES |
| --- | --- |
| < 100 nM | C[C@@H]1CN(c2cc(S(=O)(=O)NC3(C#N)CC3)cc3c2cnn3-c2nnc(C(F)F)s2)CCN1C(=O)C(O)C1CC1 (single isomer, unassigned) [EVO29537] |
| < 100 nM | C[C@@H]1CN(c2cc(S(=O)(=O)NC3(C#N)CC3)cc3c2cnn3-c2nnc(C(F)F)s2)CCN1C(=O)C(C)(C)OC(F)F [EVO29592] |
| < 100 nM | C[C@H](O)C(=O)N1CCN(c2cc(S(=O)(=O)NC3(C#N)CC3)cc3c2cnn3-c2nnc(C(F)F)s2)C[C@H]1C [EVO29334] |
| < 100 nM | C[C@@H]1CN(c2cc(S(=O)(=O)NC3(C#N)CC3)cc3c2cnn3-c2nnc(C(F)F)s2)CCN1C(=O)[C@@](C)(O)C(F)(F)F [EVO29463] |
| < 100 nM | CC(C)C(=O)C(=O)N1CCN(c2cc(S(=O)(=O)NC3(C#N)CC3)cc3c2cnn3-c2nnc(C(F)F)s2)CC1 [EVO29417] |
| < 100 nM | CO[C@H](C)C(=O)N1CCN(c2cc(S(=O)(=O)NC3(C#N)CC3)cc3c2cnn3-c2nnc(C)s2)C[C@H]1C [EVO29411] |
| < 100 nM | C[C@@H]1CN(c2cc(S(=O)(=O)NC3(C#N)CC3)cc3c2cnn3-c2nnc(C(F)F)s2)CCN1C(=O)C(O)C(C)(C)C(F)F (single isomer, unassigned) [EVO29752P1] |
| < 100 nM | C[C@@H]1CN(c2cc(S(=O)(=O)NC3(C)CC3)cc3c2cnn3-c2nnc(C(F)F)s2)CCN1C(=O)[C@](C)(O)C(F)(F)F [EVO29496] |
| < 100 nM | COC(C)(C)C(=O)N1CCN(c2cc(S(=O)(=O)NC3(C)CC3)cc3c2cnn3-c2nnc(C(F)F)s2)C[C@H]1C [EVO29503] |
| < 100 nM | C[C@@H]1CN(c2cc(S(=O)(=O)NC3(C#N)CC3)cc3c2cnn3-c2nnc(C(F)F)s2)CCN1C(=O)C(O)C(C)(C)C(F)F (single isomer, unassigned) [EVO29752P2] |
| < 100 nM | C[C@@H]1CN(c2cc(S(=O)(=O)NC3(C#N)CC3)cc3c2c(F)nn3-c2nnc(C(F)F)s2)CCN1C(=O)[C@](C)(O)C(F)(F)F [EVO29762] |
